Read-outs that look alike come from different tables or passages of the source.
How the values were obtained:
[1] = system: MDA-MB-231 cells; assay: MDA-MB-231 breast cancer cell viability assay; type: cell-based, human; conditions: increasing concentrations; FIG. 15B
Description: (§1) MCF7 is a breast cancer cell line isolated from a person. MDA-MB-231 is a cell line is an epithelial, human breast cancer cell line that was established from a pleural effusion of a person with a metastatic mammary adenocarcinomal. Cell assays were performed using increasing concentrations of C3 and cell viability was measured. Olaparib and palbocicilib were also used in the cell assays to compare the efficacy of C3 in decreasing cell viability of these breast cancer lines.

[2] = system: MCF/E2 xenograft tumor; assay: MCF/E2 xenograft tumor mouse model, tumor volume; type: in vivo; conditions: 50 mg/kg P.O. QD for 2 weeks; FIG. 14A
Description: (§2) A MCF/E2 xenograft tumor mouse model was used to evaluate the efficacy of C3 in the treatment of breast cancer. 50 mg/kg of C3 was administered, P.O., once daily (QD) for 2 weeks. Data was compared to a vehicle control.

[3] = system: HCC1937 cells; assay: BRAC1 mutant triple negative breast cancer cell growth inhibition assay (Cell Titer Glo), HCC1937; type: cell-based
Description: (§3) HCC1937 cells and HCC1395 cells are both […], triple negative (ER, PR, HER2) breast cancer cell lines. The cells were maintained in RPMI1640 medium (Gibco A10491-01) supplemented with 10% FBS, and 1× Penicillin Streptomycin. The HCC1937 cells (ATCC® CRL-2336™) and HCC1395 cells (ATCC® CRL-2324™), respectively, were plated in 96 dark well plates at 0.4×10^4 cells/well.
(§4) Cell medium was replaced each day for 4 days.
(§5) To determine cell viability, the relative cell number was determined by the Cell Titer Glo reagent (Promega) according to the protocol. At each day of the assay, the 96 well plate and reagents were equilibrated at RT for 30 min. 100 μl of Cell Titer Glo reagent was added to each well. The contents of each well were mixed using a pipetter to induce cell lysis. The plate was allowed to incubate at RT for 30 min to stabilize the luminescent signal, and the luminescence was determined by a luminometer (Perkin Elmer EnSpire).

[4] = system: HCC1395 cells; assay: BRAC1 mutant triple negative breast cancer cell growth inhibition assay (Cell Titer Glo), HCC1395; type: cell-based
Description: as §3, §4, §5

[5] = MCF/E2 xenograft tumor mouse model, body weight; type: in vivo; conditions: 50 mg/kg P.O. QD for 2 weeks; FIG. 14B
Description: as §2

[6] = system: MB231 cells; assay: MB231 cell proliferation assay; type: cell-based, human; conditions: days 1-4; FIG. 8, 9
Description: A cell proliferation assay was performed with MB231 cells, which is a human breast cancer adenocarcinoma cell line expressing a mutant CDKN2A, treated with C3 or olaparib. Cell proliferation results at increasing concentrations of C3 and olaparib were measured at day 1 (FIG. 8A), day 2 (FIG. 8B), day 3 (FIG. 8C), and day 4 (FIG. 8D).

[7] = system: MCF7 cells; assay: MCF7 breast cancer cell viability assay; type: cell-based, human; conditions: FIG. 15A
Description: as §1

[8] = Pharmacokinetics in female BALB/c mice; type: in vivo; conditions: plasma; for MRT last: read-out: MRT(0-t)
Description: Pharmacokinetic parameters of the of C3 were measured after a single intraperitoneal injection (IP) of 10 mg/kg, or oral administration (PO) of 50 mg/kg in female BALB/c mice. Pharmacokinetic parameters measured include: elimination half-life (t1/2), time to reach maximum blood plasma concentration (Tmax); maximum blood plasma concentration (Cmax); area under the blood plasma concentration-time curve from time zero to the last detectable plasma concentration (AUC(0-t)); area under the blood plasma concentration-time curve from time zero to infinity (AUC(0-∞)); the mean residence time of the drug in the body from time zero to the last detectable plasma concentration (MRT(0-t)); apparent volume of distribution during terminal phase (Vz); and apparent total body clearance of the drug from plasma (CL).

[9] = system: MCF7 cells; assay: MCF7 cell proliferation assay; type: cell-based, human; conditions: days 1-4; FIG. 6, 7
Description: A cell proliferation assay was performed with MCF7 cells, which is a human breast cancer adenocarcima cell line which expresses PARP1, to compare the inhibitor effect of C2 (Abemaciclib), C2 in combination with letrozole (1 μM), C3, and C3 in combination with letrozole (1 μM). Cell proliferation results at increasing concentrations of C2 and C3 were measured at day 1 (FIG. 6A), day 2 (FIG. 6B), day 3 (FIG. 6C), and day 4 (FIG. 6D).

[10] = molecular target: T1, PARP1 (Homo sapiens, UniProt P09874); assay: PARP inhibition assay (TREVIGEN kit, NAD fluorescence); type: biochemical; conditions: final PARP concentration 40 nM; inhibition curves FIG. 2A-2D
T1 construct: purchased TREVIGEN 4690-096-K
Description: The PARP inhibition assay was performed using a commercially available PARP inhibition assay kit (TREVIGEN, 4690-096-K).
A 1× buffer was prepared by diluting 10× buffer with dH2O.
The nicotinamide adenine dinucleotide (NAD) standards were prepared by diluting the NAD stock solution with the 1× buffer as provided in Table 2 below.
PARP1 inhibitors were prepared in 1× buffer at 50× final concentration. 1 μl of PARP inhibitors were added to the 96 well plate.
PARPminus (×20) and PARPplus (×40) solutions were prepared as provided below in Table 3.
The cycling mix(60×) was prepared as provided below in Table 4.
In the black 96 well plate provided with the kit, 25 μl of 1× buffer was added to wells A5 and A6. To wells B5 to G6, 25 μl of 2×NAD standards were added. To wells H1, H2, A7 to G12, 25 μl NAD2 μM were added. To wells A5 to H6, 1 μl DMSO were added.
The following stock solutions of olaparib and C3 were separately prepared: 500 nM, 2.5 μM, 5 μM, 25 μM, 50 μM, 0.5 mM, and 1 mM. […]
The 96 well plate was read with a fluorescent plate reader (544 nm excitation/590 nm emission filters). […]
The standards indicate that higher concentrations of NAD correspond to higher fluorescence. Because PARP1 consumes NAD, PARP1 inhibition was determined by fluorescence intensity.
Inhibition curves were prepared based on the fluorescence data. […]

[11] = system: more than 480 kinase assays (403 non-mutant kinases); assay: Kinase selectivity, DiscoverX KINOMEscan competition binding
Description: A kinase selectivity assay was performed with C3 using DiscoverX KINOMEscan™ (www.discoverx.com/, which is herein incorporated by reference in its entirety for all purposes). The KINOMEscan platform employs active site-directed competition binding assay to quantitatively measure interactions between test compounds (e.g., C3) and more than 480 kinase assays including clinically relevant mutants, lipid, atypical, and pathogen kinases, plus a growing panel of activation-state specific assays.
The data was interpreted using three selectivity score types (e.g., S(35); S(10); and S(1)) in order to provide a broad kinase selectivity picture (e.g., a selectivity score) of C3. The selectivity score was calculated using % Ctrl as a potency threshold (below) and provides a quantitative method of describing compound selectivity to facilitate comparison of different compounds. The three selectivity score types used to interpret the data are summarized below: S=Number of hits/Number of assays S(35)=(number of non-mutant kinases with % Ctrl<35)/(number of non-mutant kinases tested) S(10)=(number of non-mutant kinases with % Ctrl<10)/(number of non-mutant kinases tested) S(1)=(number of non-mutant kinases with % Ctrl<1)/(number of non-mutant kinases tested)

[12] = % Ctrl<1, 403 non-mutant kinases, screening concentration 1000 nM
[13] = % Ctrl<10, 403 non-mutant kinases, screening concentration 1000 nM
[14] = % Ctrl<35, 403 non-mutant kinases, screening concentration 1000 nM

T1 sequence (P09874 whole entry): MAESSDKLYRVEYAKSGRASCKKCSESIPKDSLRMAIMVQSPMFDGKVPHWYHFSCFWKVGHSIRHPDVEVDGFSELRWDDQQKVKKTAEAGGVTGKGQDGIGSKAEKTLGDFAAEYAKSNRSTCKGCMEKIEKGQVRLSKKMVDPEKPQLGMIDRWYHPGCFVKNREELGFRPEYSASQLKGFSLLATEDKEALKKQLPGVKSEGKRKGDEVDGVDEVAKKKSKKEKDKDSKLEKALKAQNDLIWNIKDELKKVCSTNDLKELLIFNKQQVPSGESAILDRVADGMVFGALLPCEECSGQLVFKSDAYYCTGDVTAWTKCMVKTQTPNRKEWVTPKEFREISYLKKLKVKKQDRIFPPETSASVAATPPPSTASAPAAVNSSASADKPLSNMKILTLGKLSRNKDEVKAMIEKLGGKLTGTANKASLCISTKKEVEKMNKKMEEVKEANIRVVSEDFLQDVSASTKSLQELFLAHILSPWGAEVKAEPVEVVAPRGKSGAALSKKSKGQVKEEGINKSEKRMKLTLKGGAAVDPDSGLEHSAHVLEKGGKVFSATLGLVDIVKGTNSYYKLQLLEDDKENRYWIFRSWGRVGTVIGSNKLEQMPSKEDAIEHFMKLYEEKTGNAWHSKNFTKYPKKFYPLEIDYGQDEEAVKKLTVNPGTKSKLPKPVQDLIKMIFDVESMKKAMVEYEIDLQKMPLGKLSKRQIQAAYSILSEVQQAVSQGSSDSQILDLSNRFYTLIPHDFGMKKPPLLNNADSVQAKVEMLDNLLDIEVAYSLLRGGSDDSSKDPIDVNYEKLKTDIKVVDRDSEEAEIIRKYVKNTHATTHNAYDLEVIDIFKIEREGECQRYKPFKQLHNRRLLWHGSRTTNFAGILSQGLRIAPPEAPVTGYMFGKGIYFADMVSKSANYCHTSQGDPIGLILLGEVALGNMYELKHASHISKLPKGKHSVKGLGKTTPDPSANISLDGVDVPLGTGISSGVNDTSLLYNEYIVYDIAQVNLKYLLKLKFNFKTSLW

Cc1nc2c(F)cc(-c3nc(Nc4ccc(N5CCN(C(=O)c6cc(Cc7n[nH]c(=O)c8ccccc78)ccc6F)CC5)cn4)ncc3F)cc2n1C(C)C [Compound C3]
reduction of MDA-MB-231 cell viability (comparison in words) [1]: more effective in reducing cell viability of MDA-NIB-231 cell than olaparib and palbocicilib | change in tumor volume versus vehicle control [2]: able to limit tumor growth compared to the vehicle control | viable HCC1937 cells ([3]; 10 μM, day 4, FIG. 11D): almost no HCC1937 cells were viable | viable HCC1395 cells ([4]; 10 μM, day 4, FIG. 10D): almost no HCC1395 cells were viable | change in body weight versus vehicle control [5]: does not causes changes in body weight | inhibition of MB231 cell proliferation [6]: stronger inhibitor of cell proliferation of MB231 human breast cancer adenocarcinoma cells than olaparib | reduction of MCF7 cell viability (comparison in words) ([7]; increasing concentrations): reduced cell viability of MCF7 cells at lower concentrations compared to both olaparib and palbocicilib | AUC(0-t) ([8]; mouse, PO 50 mg/kg): 1700 ng·h/mL | Cmax ([8]; mouse, PO 50 mg/kg): 292 ng/mL | Tmax ([8]; mouse, PO 50 mg/kg): 4 h | MRT last ([8]; mouse, PO 50 mg/kg): 3.62 h | AUC(0-inf) ([8]; mouse, single IP 10 mg/kg): 2670 ng·h/mL | AUC(0-t) ([8]; mouse, single IP 10 mg/kg): 2520 ng·h/mL | Cmax ([8]; mouse, single IP 10 mg/kg): 284 ng/mL | Tmax ([8]; mouse, single IP 10 mg/kg): 0.25 h | half-life ([8]; mouse, single IP 10 mg/kg): 5.7 h | MRT last ([8]; mouse, single IP 10 mg/kg): 6.3 h | CL ([8]; single IP 10 mg/kg): 62.3432 mL/min/kg | Vz ([8]; single IP 10 mg/kg): 30.75832 L/kg | inhibition of MCF7 cell proliferation [9]: inhibitor of cell proliferation | PARP1 inhibition (comparison in words) [10]: superior to C2 (Abemaciclib) and similar to olaparib | Number of Hits, S(1) [11, 12]: 11 | Selectivity Score S(1) [11, 12]: 0.027 | Number of Hits, S(10) [11, 13]: 50 | Selectivity Score S(10) [11, 13]: 0.124 | Number of Hits, S(35) [11, 14]: 86 | Selectivity Score S(35) [11, 14]: 0.213 | kinase selectivity (in words) ([11]; KINOMEscan, 1000 nM): relatively selective kinase, with similar kinase selectivity as Abemaciclib

O=C(c1cc(Cc2n[nH]c(=O)c3ccccc23)ccc1F)N1CCN(C(=O)C2CC2)CC1 [olaparib, reference compound]
viability at 10 µM ([3]; Homo sapiens, HCC1937, 96 h, day 4, FIG. 11D, read-out: viable HCC1937 cells): > 80% | viability at 10 µM ([4]; Homo sapiens, HCC1395, 96 h, day 4, FIG. 10D, read-out: viable HCC1395 cells): ~60% | concentration at which MCF7 cell viability was reduced to 0 [7]: did not reduce cell viability to 0% at the concentrations tested

— patent publication US10550103B2, “Dual inhibitors of PARP1 and CDK” (Accutar Biotechnology, priority 2017, dated 2020)
